Measured values: patent publication US8268814B2, “Substituted sulfonamide compounds” (Gruenenthal GmbH, priority 2008, dated 2012)

Key:
[1] = molecular target: T1, human B1R receptor (hB1R) (Homo sapiens, UniProt P46663); assay: Functional FLIPR Ca2+ assay on the bradykinin 1 receptor, human (hB1R CHO K1 cells); type: cell-based; details: test substance 10 μM; CHO K1 cells transfected with human B1R gene; agonist Lys-Des-Arg9-bradykinin at EC80; % inhibition compared with maximum achievable inhibition; read-out: B1R antagonism, human (10 μM] % inhibition
T1 construct: expressed in transfected cells; host or cells: CHO K1 cells (Chinese hamster ovary), stably transfected
T1 sequence (P46663 1-353): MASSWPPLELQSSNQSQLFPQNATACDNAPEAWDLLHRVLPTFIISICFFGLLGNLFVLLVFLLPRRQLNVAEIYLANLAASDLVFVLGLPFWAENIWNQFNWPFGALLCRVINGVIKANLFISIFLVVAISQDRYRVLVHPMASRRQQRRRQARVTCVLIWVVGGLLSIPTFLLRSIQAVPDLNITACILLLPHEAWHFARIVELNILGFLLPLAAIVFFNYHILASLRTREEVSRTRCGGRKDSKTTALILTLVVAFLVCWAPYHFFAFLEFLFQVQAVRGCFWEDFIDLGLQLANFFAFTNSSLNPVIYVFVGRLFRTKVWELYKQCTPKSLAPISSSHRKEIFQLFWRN
Experimental: (§1) The agonistic or antagonistic action of substances can be quantified on the bradykinin 1 receptor (B1R) of the human and rat species with ectopically expressing cell lines (CHO K1 cells) and with the aid of a Ca^2+-sensitive dyestuff (Fluo-4) in a fluorescent imaging plate reader (FLIPR). The figure in % activation is based on the Ca^2+ signal after addition of Lys-Des-Arg^9-bradykinin (0.5 nM) or Des-Arg^9-bradykinin (100 nM). Antagonists lead to a suppression of the Ca^2+ inflow after addition of the agonist. % inhibition compared with the maximum achievable inhibition is stated.
(§2) The agonistic or antagonistic action of substances can be determined on the bradykinin 1 receptor (B1R) of the human and rat species with the following assay. In accordance with this assay, the Ca^2+ inflow through the channel is quantified with the aid of a Ca^2+-sensitive dyestuff (type Fluo-4, Molecular Probes Europe BV, Leiden, Holland) in a fluorescent imaging plate reader (FLIPR, Molecular Devices, Sunnyvale, USA).
(§3) Chinese hamster ovary cells (CHO K1 cells) transfected stably with the human B1R gene (hB1R cells) or the B1R gene of the rat (rB1R cells) are used. For functional studies, these cells are plated out on black 96-well plates with a clear base (BD Biosciences, Heidelberg, Germany or Greiner, Frickenhausen, Germany) in a density of 20,000-35,000 cells/well. The cells are left overnight at 37° C. and 5% CO2 in culture medium (hB1R cells: Nutrient Mixture Ham's F12, Gibco Invitrogen GmbH, Karlsruhe, Germany or DMEM, Sigma-Aldrich, Taufkirchen, Germany; rB1R cells: D-MEM/F12, Gibco Invitrogen GmbH, Karlsruhe, Germany) with 10 vol. % FBS (foetal bovine serum, Gibco Invitrogen GmbH, Karlsruhe, Germany or PAN Biotech GmbH, Aidenbach, Germany). On the following day, the cells are loaded for 60 min at 37° C. with 2.13 μM Fluo-4 (Molecular Probes Europe BV, Leiden, Holland) in HBSS buffer (Hank's buffered saline solution, Gibco Invitrogen GmbH, Karlsruhe, Germany) with 2.5 mM probenecid (Sigma-Aldrich, Taufkirchen, Germany) and 10 mM HEPES (Sigma-Aldrich, Taufkirchen, Germany). The plates are then washed 2× with HBSS buffer, and HBSS buffer which additionally contains 0.1% BSA (bovine serum albumin; Sigma-Aldrich, Taufkirchen, Germany), 5.6 mM glucose and 0.05% gelatine (Merck KgaA, Darmstadt, Germany) is added. After a further incubation of 20 minutes at room temperature, the plates are inserted into the FLIPR for the Ca^2+ measurement.
(§4) Alternatively, the plates are washed with buffer A (15 mM HEPES, 80 mM NaCl, 5 mM KCl, 1.2 mM CaCl2, 0.7 mM MgSO4, 2 g/l glucose, 2.5 mM probenecid), buffer A is added and the plates are loaded with 2.5 μM Fluo-4 and 0.025% Pluronic F127 (Sigma-Aldrich, Taufkirchen, Germany). Thereafter, the cells are washed 2× with buffer A and incubated for 30 minutes with buffer A, which additionally contains 0.05% BSA and 0.05% gelatine, at room temperature and thereafter inserted into the FLIPR for the Ca^2+ measurement. The Ca^2+-dependent fluorescence is measured here before and after addition of substances (λex=488 nm, λem=540 nm). Quantification is by measurement of the highest fluorescence intensity (FC, fluorescence counts) over time.
(§5) The FLIPR protocol consists of 2 additions of substance. Test substances (10 μM) are first pipetted on to the cells and the Ca^2+ inflow is compared with the control (hB1R: Lys-Des-Arg^9-bradykinin >=50 nM; rB1R: Des-Arg^9-bradykinin 10 μM). This gives the figure in % activation based on the Ca^2+ signal after addition of Lys-Des-Arg^9-bradykinin (>=50 nM) or Des-Arg^9-bradykinin (10 μM). After incubation for 10-20 minutes, Lys-Des-Arg^9-bradykinin (hB1R) or Des-Arg^9-bradykinin (rB1R) in the concentration of the EC80 is applied and the inflow of Ca^2+ is likewise determined. Antagonists lead to a suppression of the Ca^2+ inflow. % inhibition compared with the maximum achievable inhibition is calculated. In order to determine the IC50 value, the substances are added in various concentrations. […]

[2] = molecular target: T2, B1R receptor of the rat (rB1R) (Rattus norvegicus, UniProt P97583); assay: Functional FLIPR Ca2+ assay on the bradykinin 1 receptor, rat (rB1R CHO K1 cells); type: cell-based; details: test substance 10 μM; CHO K1 cells transfected with rat B1R gene; agonist Des-Arg9-bradykinin at EC80; % inhibition compared with maximum achievable inhibition; read-out: B1R antagonism, rat [10 μM] % inhibition
T2 construct: expressed in transfected cells; host or cells: CHO K1 cells (Chinese hamster ovary), stably transfected
T2 sequence (P97583 1-337): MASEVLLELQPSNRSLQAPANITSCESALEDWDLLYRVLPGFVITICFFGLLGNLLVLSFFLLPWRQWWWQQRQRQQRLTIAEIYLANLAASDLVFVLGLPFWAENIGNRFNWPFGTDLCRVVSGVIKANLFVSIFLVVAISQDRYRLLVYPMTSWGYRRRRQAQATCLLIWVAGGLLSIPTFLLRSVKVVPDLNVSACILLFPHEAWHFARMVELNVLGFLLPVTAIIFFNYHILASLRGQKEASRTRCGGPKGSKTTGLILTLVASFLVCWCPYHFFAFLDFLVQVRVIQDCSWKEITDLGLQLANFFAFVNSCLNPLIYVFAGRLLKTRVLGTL
Experimental: as §1, §2, §3, §4, §5

In the case of `O=C(C[C@@H](NS(=O)(=O)c1ccc2ccccc2c1)c1ccccc1)N1CCc2onc(CN3CCCCC3)c2C1` [Example 17, I—N-(3-oxo-1-phenyl-3-(3-(piperidin-1-ylmethyl)-6,7-dihydroisoxazolo[4,5-c]pyridin-5(4H)-yl)propyl)naphthalene-2-sulfonamide], the inhibition at 10 µM [1] is reported as 49% and the inhibition at 10 µM [2] is reported as 55%.

`CN1CCN(Cc2cc3c(s2)CCN(C(=O)CC(NS(=O)(=O)c2ccc4ccccc4c2)c2ccccc2)C3)CC1` (racemic) [Example 46, N-(3-(2-((4-methylpiperazin-1-yl)methyl)-6,7-dihydrothieno[3,2-c]pyridin-5(4H)-yl)-3-oxo-1-phenylpropyl)naphthalene-2-sulfonamide] showed an inhibition at 10 µM [1] of 100% and an inhibition at 10 µM [2] of 102%.

Compound `COc1cc(C)c(S(=O)(=O)N2CCCC[C@H]2COCC(=O)N2CCc3sc(CN4CCCN(C)CC4)cc3C2)c(C)c1` [Example 64, 2-[[(2S)-1-[(4-methoxy-2,6-dimethyl-phenyl)sulfonyl]-piperidin-2-yl]-methoxy]-1-[2-[(4-methyl-[1,4]diazepan-1-yl)-methyl]-4,5,6,7-tetrahydro-thieno[3,2-c]pyridin-5-yl]-ethanone] has an inhibition at 10 µM [1] of 100%.

`COc1cc(C)c(S(=O)(=O)N(C)CCOCC(=O)N2CCc3[nH]cnc3C2c2ccccc2)c(C)c1` (centres unmarked) [Example 66, 4-Methoxy-N,2,6-trimethyl-N-[2-[2-oxo-2-(4-phenyl-4,5,6,7-tetrahydro-1H-imidazo[4,5-c]pyridin-5-yl)-ethoxy]-ethyl]-benzenesulfonic acid amide] showed an inhibition at 10 µM [2] of 97%.

For `CN1CCN(Cc2cc3c(s2)CCN(C(=O)CCCC2CCCCN2S(=O)(=O)c2cccc4ccccc24)C3)CC1` (centres unmarked) [Example 73, 1-[2-[(4-Methyl-piperazin-1-yl)-methyl]-4,5,6,7-tetrahydro-thieno[3,2-c]pyridin-5-yl]-4-[1-(naphthalen-1-ylsulfonyl)-piperidin-2-yl]-butan-1-one], the inhibition at 10 µM [2] was 99%.

For `CN1CCN(Cc2cc3c(s2)CCN(C(=O)CCCC2CCCCN2S(=O)(=O)c2ccc4ccccc4c2)C3)CC1` (centres unmarked) [Example 75, 1-[2-[(4-Methyl-piperazin-1-yl)-methyl]-4,5,6,7-tetrahydro-thieno[3,2-c]pyridin-5-yl]-4-[1-(naphthalen-2-ylsulfonyl)-piperidin-2-yl]-butan-1-one], the inhibition at 10 µM [2] was 103%.

In the case of `COc1cc(C)c(S(=O)(=O)N(CCOCC(=O)N2CCc3[nH]cnc3C2c2ccccc2)Cc2ccccc2)c(C)c1` (centres unmarked) [Example 82, N-Benzyl-4-Methoxy-2,6-dimethyl-N-[2-[2-oxo-2-(4-phenyl-4,5,6,7-tetrahydro-1H-imidazo[4,5-c]pyridin-5-yl)-ethoxy]-ethyl]-benzenesulfonic acid amide], the inhibition at 10 µM [2] is reported as 100%.

Compound `COc1cc(C)c(S(=O)(=O)N2CCCCC2CCCC(=O)N2CCc3[nH]cnc3C2c2ccccc2)c(C)c1` (centres unmarked) [Example 71, 4-[1-[(4-Methoxy-2,6-dimethyl-phenyl)sulfonyl]-piperidin-2-yl]-1-(4-phenyl-4,5,6,7-tetrahydro-1H-imidazo[4,5-c]pyridin-5-yl)-butan-1-one] has an inhibition at 10 µM [2] of 101%.

Work on `COc1cc(C)c(S(=O)(=O)N(C)CCOCC(=O)N2CCc3[nH]cnc3C2c2ccccc2)c(C)c1C` (centres unmarked) [Example 96, 4-Methoxy-N,2,3,6-tetramethyl-N-[2-[2-oxo-2-(4-phenyl-4,5,6,7-tetrahydro-1H-imidazo[4,5-c]pyridin-5-yl)-ethoxy]-ethyl]-benzenesulfonic acid amide] yielded an inhibition at 10 µM [2] of 54%.

Work on `CN1CCN(Cc2cc3c(s2)CCN(C(=O)COCC2COc4ccccc4N2S(=O)(=O)c2ccccc2C(F)(F)F)C3)CC1` (centres unmarked) [Example 93, 1-[2-[(4-Methyl-piperazin-1-yl)-methyl]-4,5,6,7-tetrahydro-thieno[3,2-c]pyridin-5-yl]-2-[[4-[[2-(trifluoromethyl)-phenyl]sulfonyl]-3,4-dihydro-2H-[1,4]benzoxazin-3-yl]-methoxy]-ethanone] yielded an inhibition at 10 µM [2] of 93%.

In the case of `O=C(CCCC1CCCCN1S(=O)(=O)c1ccc2ccccc2c1)N1CCc2[nH]cnc2C1c1ccccc1` (centres unmarked) [Example 76, 4-[1-(Naphthalen-2-ylsulfonyl)-piperidin-2-yl]-1-(4-phenyl-4,5,6,7-tetrahydro-1H-imidazo[4,5-c]pyridin-5-yl)-butan-1-one], the inhibition at 10 µM [2] is reported as 48%.

For `Cc1cccc(Cl)c1S(=O)(=O)N1CCCCC1CCCC(=O)N1CCc2sc(CN3CCN(C)CC3)cc2C1` (centres unmarked) [Example 68, 4-[1-[(2-Chloro-6-methyl-phenyl)sulfonyl]-piperidin-2-yl]-1-[2-[(4-methyl-piperazin-1-yl)-methyl]-4,5,6,7-tetrahydro-thieno[3,2-c]pyridin-5-yl]-butan-1-one], the inhibition at 10 µM [2] was 103%.

`O=C(CCCC1CCCCN1S(=O)(=O)c1cccc2ccccc12)N1CCc2[nH]cnc2C1c1ccccc1` (centres unmarked) [Example 74, 4-[1-(Naphthalen-1-ylsulfonyl)-piperidin-2-yl]-1-(4-phenyl-4,5,6,7-tetrahydro-1H-imidazo[4,5-c]pyridin-5-yl)-butan-1-one] gave an inhibition at 10 µM [2] of 95%.

Compound `COc1cc(C)c(S(=O)(=O)N2c3ccccc3OCC2COCC(=O)N2CCc3sc(CN4CCN(C)CC4)cc3C2)c(C)c1` (centres unmarked) [Example 91, 2-[[4-[(4-Methoxy-2,6-dimethyl-phenyl)sulfonyl]-3,4-dihydro-2H-[1,4]benzoxazin-3-yl]-methoxy]-1-[2-[(4-methyl-piperazin-1-yl)-methyl]-4,5,6,7-tetrahydro-thieno[3,2-c]pyridin-5-yl]-ethanone] has an inhibition at 10 µM [2] of 103%.

In the case of `COc1cc(C)c(S(=O)(=O)N2c3ccccc3CCC2COCC(=O)N2CCc3sc(CN4CCN(C)CC4)cc3C2)c(C)c1` (centres unmarked) [Example 85, 2-[[1-[(4-Methoxy-2,6-dimethyl-phenyl)sulfonyl]-1,2,3,4-tetrahydro-quinolin-2-yl]-methoxy]-1-[2-[(4-methyl-piperazin-1-yl)-methyl]-4,5,6,7-tetrahydro-thieno[3,2-c]pyridin-5-yl]-ethanone], the inhibition at 10 µM [2] is reported as 102%.
